Entries after “also recorded” stand apart in the source; their conditions may differ.
Tested on: P. falciparum parasites
Experiment: Cellular heme fractionation (heme speciation) assay
Assay type: cell-based, Plasmodium falciparum
Description: At this juncture, it is noteworthy that a true hemozoin inhibitor causes a dose-dependent increase in “free” heme and a corresponding decrease in hemozoin. page 23: Table S2: Concentrations of fluorescent dyes used for confocal imaging of P. falciparum with respective excitation lasers and emission filter settings. Dye Concentration Excitation Laser Emission filter DRAQ 5 500 nM 580 nm 600-630 nm LysoTracker 100 nM 561 nm 575-630 nm Nile Red 100 nM 561 nm 575-630 nm ER-Tracker 100 nM 561 nm 575-630 nm MitoTracker 100 nM 561 nm 650-710 nm 1.3-NBD 50 nM 420 nm 500-550 nm 3.14-NBD 75 nM 420 nm 500-550 nm Heme Fractionation Assay […] The heme fractionation assay was performed according to the methods previously described.9 After the IC50 of the target compounds was determined, a counting plate was prepared by adding 10 μL of the isolated washed trophozoites to the corresponding wells of a flat-bottomed 96-well plate. […] The hemocytometer determined cell counts for these six samples were statistically compared to the cell counts determined by flow cytometry to test for agreement. 10 μL of cells from the counting plate were loaded onto a bright-lined hemocytometer, and five large squares were counted after 10 minutes of settling. The concentration of cells in each well of the plate was determined using equation 1: CH 1⁄4 […] […] Typically, 10,000 events were counted for each sample. […]

CCN(CCNc1cc2[nH]c(-c3cccc(C(F)(F)F)c3)nc2cn1)Cc1ccc(Cl)cc1O [Compound 14, 5-Chloro-2-((ethyl(2-((2-(3-(trifluoromethyl)phenyl)-1H-imidazo[4,5-c]pyridin-6-yl)amino)ethyl)amino)methyl)phenol]
Levels of hemozoin (Hz) Fe (between 0.5–2× IC50): significant decrease; also recorded: decreased
Levels of "free" heme Fe (increasing concentrations of compound): no statistically significant change; also recorded: no statistically significant effect

From PMC10111423, “Antimalarial Imidazopyridines Incorporating an Intramolecular Hydrogen Bonding Motif: Medicinal Chemistry and Mechanistic Studies” (ACS Infectious Diseases, 2023)
